Experimental data taken from US9968636B2, “Peritoneal dialysis fluid comprising a GSK-3 inhibitor” (ZYTOPROTEC GMBH, priority 2011, dated 2018).
Entries after “also recorded” stand apart in the source; their conditions may differ.

Key:
mesothelial cells = assay: Light microscopy and vital-dead (live-dead) staining of mesothelial cells; type: cell-based, human; conditions: LiCl, low pH glucose-based or icodextrin-based PD fluids, data not shown
Description: (§1) PDF exposure model: confluent cultures on 12-well plates were exposed for the indicated times (30 min or 1 h) to the PD fluid solution or kept in parallel in control medium. For HSF-1 activity assay, cells were harvested and lysed immediately after exposure times, whereas for measurements of LDH and HSP-72, p-GSK-3β Western blot analysis, cells were allowed to recover by incubation with normal culture medium containing 10% FBS for 16 h.

[1] = tested on: human Met-5a cell line (mesothelial cells); assay: Cell viability by neutral red uptake after PD fluid exposure; conditions: 10 mM LiCl; low pH glucose-based or icodextrin-based PD fluids; 1 h exposure, 16 h recovery; FIG. 3
Description: (§2) The human Met-5a cell line was purchased from American Type Culture Collection (ATCC, Rockville, Md.). All cells were cultured in M199 culture medium supplemented with L-glutamine (0.1 g/L), penicillin (100 U/mL), streptomycin (100 μg/mL), 10% fetal bovine serum (FBS) and propagated at 37° C. in a humidified air containing 5% CO2 incubator. Standard chemicals were purchased from Sigma-Aldrich (St. Louis, Mo., USA) unless otherwise stated. Falcon™ tissue culture plastics (Becton Dickinson, Franklin Lakes, N.J., USA) were used for all cell culture procedures.
as §1
To assess cell viability by neutral red uptake, cells were seeded out to 96-well plates and exposed to different treatment protocols as described before. Neutral red uptake was measured using a standard reagent (Sigma-Aldrich, St. Louis, Mo., USA) according to the manufacturer's protocol.

[2] = tested on: heat shock factor-1 (HSF-1); assay: HSF-1 activity by Luciferase assay (heat shock element reporter); type: cell-based, human; conditions: 10 mM LiCl; control cells, glucose-based low pH high GDP and low pH icodextrin-based PD fluids; 30 min exposure, 6 h recovery; FIG. 4
Description: as §1, with “[…],” for “For HSF-1 activity assay, cells were harvested and lysed immediately after exposure times,”
To determine the specific binding of the heat shock factor-1 (HSF-1), a commercially available Luciferase Reporter Vector (LR0038, Panomics, Italy) containing the heat shock element [5′[…]3′] as well as an empty control vector were transfected into the MeT-5a cells. 24 h prior to transfection, MC were seeded onto 96-well cell culture plates and allowed to reach approximately 80-90% confluence on day of transfection. Before transfection per well 0.15 μl Fugene6 (Roche) transfection reagent and 0.1 μl HSE reporter vector or control vector were each diluted with 5 μl of normal growth medium without FCS and incubated for 5 min. The solutions were mixed incubated for 30 min. Of this mix 10 μl were added to each well incubated for 24 h at 5% CO2 and 37° C. in a humidified atmosphere. […] The luciferase reagent (E1500, Promega) was added using an automatic pipette in 3 s intervals and the yielded signal was measured after 2 min using a luminometer plate reader (Flx800, BioTek).

[3] = tested on: human Met-5a cell line (mesothelial cells); assay: LDH release into the supernatant after PD fluid exposure; type: cell-based; conditions: for LDH levels: icodextrin-based fluid
Description: as §2, §1
For LDH analyses, 200 μL aliquots of supernatants were removed after the described experimental setup and kept on −20° C. until analyzed within 48 h. Measurements were performed in duplicates with Sigma TOX-7 LDH Kit according to the manufacturer's instructions. LDH efflux was normalized for protein content.

[4] = tested on: Heat shock protein-72 (HSP-72); assay: HSP-72 expression by Western blot; type: cell-based, human
Description: as §1
For western blotting, protein content is determined by the Bradford assay (Biorad, Vienna, Austria) and equal amounts of protein samples (2 μg/lane) are separated by standard SDS-PAGE using a Pharmacia Multiphore II unit. Size-fractionated proteins are then transferred to PVDF membranes by semi-dry transfer in a Pharmacia Multiphore II Novablot unit. Membranes are blocked in 5% dry milk in TBS-Tween (10 mM Tris, 150 mM NaCl, 0.05% Tween 20, pH 7.4). Membranes are incubated with the respective primary antibody (HSP-72, p-GSK-3β) for 16 h. Detection is accomplished by incubation with secondary, peroxidase-coupled antibodies (anti-mouse or anti-rabbit IgG, both Dako Cytomation, Calif., USA) and enhanced chemiluminescence (ECL) using the ECL western blotting analysis system (Renaissance, NEN-Life Science Products, Boston, Mass., USA).

SMILES: [Cl-].[Li+] [LiCl, Lithium-chloride]
- cell structure (mesothelial cells): preserved cell structure
- rate of dead cells (mesothelial cells; live-dead staining): reduced cell death rate; also recorded: reduced rate of dead cells
- number of viable cells (neutral red uptake) [1]: improved cell viability; also recorded: increased number of viable cells
- HSF-1 transcriptional activity [2]: significantly increased
- LDH release (cell injury) ([3]; 10 mM LiCl added, all PD fluids observed, 1 h exposure, 16 h recovery, vs no LiCl, FIG. 2): decreased LDH release; also recorded: attenuated LDH release
- protection (LDH release) ([3]; 10 mM LiCl, incubation with low pH glucose-based and icodextrin-based solutions, FIG. 2): most prominent protection
- LDH levels ([3]; 1 mM LiCl, FIG. 6): did not change significantly
- LDH levels ([3]; 2 mM LiCl, FIG. 6): already decreased
- LDH levels ([3]; 5 mM LiCl, FIG. 6): the decrease was even more significant
- LDH levels ([3]; 10 mM LiCl, FIG. 6): the decrease was even more significant
- LDH release ([3]; low pH glucose-based (PDF) fluid, 10 mM LiCl, FIG. 6): significantly reduced
- release of LDH into the supernatant ([3]; low pH glucose-based (PDF) fluid, LiCl 1 mM to 5 mM, FIG. 6): did not alter
- level of HSP-72 ([4]; 10 mM LiCl, each incubation setting (glucose-based or icodextrin-based PD fluid, 30 min or 1 h) vs respective untreated cells, FIG. 5): significantly increased
- HSP-72 expression ([4]; glucose-based low pH PDF, LiCl 1, 2, 5, 10 mM vs untreated cells, 30 min exposure, 16 h recovery, FIG. 8): increased only after administration of either 2 mM or 10 mM LiCl
- HSP-72 protein expression ([4]; icodextrin-based PD fluid, LiCl 1, 2, 5, 10 mM, 30 min exposure, 16 h recovery, FIG. 8): all the applied LiCl doses increased
